One data set in a line: Steroid Solubility Test. It counts as physicochemical. On the procedure: This test was conducted to determine the maximum weight of Steroids A and B that could completely dissolve in 1 ml of various solvents at a temperature of 20°C.
Data set [1] relates to carrageenin-induced paw edema. Put plainly: Inhibition of carrageenin-induced paw edema in rats. The following applies: 200 mg ointment (Ointment A / Ointment B) rubbed into right hind paw 1 and 2 hours before carrageenin. It counts as in vivo. On the procedure: After the ointment was applied to a rat's hind paw, carrageenin serving as a phlogogen was injected into the same hind paw, and the swelling caused by the phlogogen was measured. More specifically stated, the test was carried out as given below, using groups of 5 rats (weighing 175 g). First, the right hind paw of the rat was immersed in water, and the displacement was measured thereby giving the volume of hind paw. One and 2 hours before the injection of the phlogogen (carrageenin), 200 mg of the ointment was elaborately rubbed into the right hind paw of the rat, which was then wrapped in Saran Wrap (trademark) and covered with an elastic strip of adhesive plaster. Thereafter, 0.1 ml of a 1% solution of carrageenin was injected into the right hind paw, and the volume of the hind paw was hourly measured to determine the swelling (%) according to the following equation based on the volume thereof before the injection with the results shown in Fig. 1. [formula] wherein V0 is the volume of the right hind paw before the injection of carrageenin and V1 is the volume thereof after the injection of carrageenin.

≈ marks a conversion by molar mass, not a printed value. Read-outs that look alike come from different tables or passages of the source.

For the compound `CCOC(=O)O[C@]1(C(=O)OCCl)CC[C@H]2[C@@H]3CCC4=CC(=O)C=C[C@]4(C)[C@H]3[C@@H](O)C[C@@]21C` [Steroid A, chloromethyl 17α-ethoxycarbonyloxy-11β-hydroxyandrosta-1,4-diene-3-one-17β-carboxylate], the solubility in “Steroid Solubility Test” (organic solvent or mixture, solvent 1,3-Butanediol, 20°C, read-out: maximum weight that could completely dissolve in 1 ml of solvent) was 1.95 mg/mL (≈ 4.18 mM); in “Steroid Solubility Test” (organic solvent or mixture, solvent 1,3-Dimethyl-2-imidazolidinone, 20°C, read-out: maximum weight that could completely dissolve in 1 ml of solvent), 357 mg/mL (≈ 765 mM); in “Steroid Solubility Test” (organic solvent or mixture, solvent Benzyl alcohol, 20°C, read-out: maximum weight that could completely dissolve in 1 ml of solvent), greater than 25 mg/mL; in “Steroid Solubility Test” (organic solvent or mixture, solvent Diethyl sebacate, 20°C, read-out: maximum weight that could completely dissolve in 1 ml of solvent), 6.85 mg/mL (≈ 14.7 mM); in “Steroid Solubility Test” (organic solvent or mixture, solvent Polyethylene glycol 400, 20°C, read-out: maximum weight that could completely dissolve in 1 ml of solvent), 13.3 mg/mL (≈ 28.5 mM); in the data set “Steroid Solubility Test” (organic solvent or mixture, solvent Propylene glycol, 20°C, read-out: maximum weight that could completely dissolve in 1 ml of solvent) it was 2.7 mg/mL (≈ 5.78 mM). In data set [1], the “anti-inflammatory activity (swelling of hind paw, Fig. 1, in words)” value is listed as “exhibit an anti-inflammatory activity”.

Take `CCOC(=O)O[C@]1(C(=O)OCCl)[C@H](C)C[C@H]2[C@@H]3CCC4=CC(=O)C=C[C@]4(C)[C@@]3(F)[C@@H](O)C[C@@]21C` [Steroid B, chloromethyl 17a-ethoxycarbonyloxy-9a-fluoro-11β-hydroxy-16α-methylandrosta-1,4-diene-3-one-17β-carboxylate]: the solubility turned out to be 0.05 mg/mL (≈ 0.1 mM) in “Steroid Solubility Test” (1,3-butanediol, organic solvent or mixture); 52.1 mg/mL (≈ 104 mM) in the data set “Steroid Solubility Test” (1,3-dimethyl-2-imidazolidinone, organic solvent or mixture); 0.92 mg/mL (≈ 1.84 mM) in “Steroid Solubility Test” (benzyl alcohol, organic solvent or mixture); 0.28 mg/mL (≈ 0.561 mM) in “Steroid Solubility Test” (diethyl sebacate, organic solvent or mixture); 0.45 mg/mL (≈ 0.902 mM) in “Steroid Solubility Test” (polyethylene glycol 400, organic solvent or mixture); 0.1 mg/mL (≈ 0.2 mM) in “Steroid Solubility Test” (propylene glycol, organic solvent or mixture). Also, the “anti-inflammatory activity (swelling of hind paw, Fig. 1, in words)” value in data set [1] is “exhibit an anti-inflammatory activity”.
